Tested on: amyloid-beta (1-42) peptide
Assay: ELISA assay of amyloid-beta (1-42) in conditioned media of 2B7 cells
Assay type: cell-based
Details: for inhibition at 10 µM: Aβ-42, 10 umol/L; for IC50: 5 h, Aβ-42, 2B7 cells, 5 hours, read-out: IC50 range
Description: Compounds of the present invention, and extracts comprising said compounds, may be assayed as inhibitors of amyloid-beta (1-42) peptide in vitro or in vivo. Such assay methods are described in detail in U.S. Pat. No. 6,649,196, the entirety of which is hereby incorporated herein by reference.
In certain embodiments, provided compounds of the present invention, and extracts comprising said compounds, were assayed as inhibitors of amyloid-beta (1-42) peptide in vitro using an ELISA assay.
Capture Plate Prep: • 6E10 was diluted to 5.0 ug/mL in 100 mM NaHCO3 pH 8.2 (10 ug aliquot per 2 mL buffer); • 100 uL capture antibody solution was added to wells of 96 well plate; • Incubated overnight at 4° C. sealed; • Aspirated off capture antibody; and • Blocked with 250 uL of Blocking Buffer for 2-4 hours at rt sealed.
Conditioned Media: • Cultured 2B7 cells in 96 well plate with 250 uL of media per well until confluent; • Prepared serial dilution of compounds in DMSO at 100× the final desired concentration; • Washed wells with 2B7 cells lx with 250 uL of media; • Diluted DMSO stocks 1:100 into media and mix; and • Added 250 μL of media containing compounds (1% DMSO) to wells with 2B7 cells for 5 hours at 37° C.
Elisa Sample Prep: • Diluted conditioned media 1:2 into blocking buffer; • NOTE: If assaying for A-Beta 1-40 or total A-Beta, then diluted above sample 1:10 with a 50/50 mixture of non-conditioned media containing 1% DMSO and blocking buffer.
Standard Curve Sample Prep: • Diluted appropriate A-Beta peptide stock (stored in 1% NH4OH) to 200 μg/mL in blocking buffer; • Prepared a 1:2 serial dilution from the 200 μg/mL sample (150 μL into 150 μL blocking buffer); and • Added equal volume of standard curve samples to non-conditioned media with 1% DMSO.
Overnight Sample Incubation: • Aspirated blocking buffer from blocked plate; • Added 100 μL of samples to wells of plate (samples will be 50% media with 1% DMSO and 50% blocking buffer; and • Incubated overnight at 4° C. sealed.
Addition of Detection Antibody: • Aspirated off samples, wash 2× with 250 μL blocking buffer; and • Added 100 μL detection antibody labeled with HRP at 0.25 ug/mL in blocking buffer for 4 hours at room temperature sealed.
Final Wash and Readout: • Aspirated wells, wash 5× with 250 μL of PBS-T (2 minutes each wash at 30 RPM); • Added 100 μL TMB for 20 minutes; • Added 100 μL of 1M H3PO4; and • Read at 450 nm.
Coating Buffer (100 mM NaHCO3 pH 8.2)
PBS-T (PBS with 0.05% Tween-20)
Blocking Buffer (1% BSA in PBS-T)

[1] = Aβ-42, 20 umol/L, read-out: % Inhibition (range)

| Compound | IC50 | further results |
| --- | --- | --- |
| C[C@@H]1CC[C@@]2(NC1)OC1C[C@H]3C4CC=C5C[C@@H](O)CC[C@]5(C)C4CC[C@]3(C)C1[C@@H]2C (stereo partly shown) | – | inhibition at 2.5 µM (Aβ-42, 2.5 umol/L, read-out: % Inhibition (range)): < 25% |
| C[C@@H]1C(O)CO[C@@]2(O)C[C@H]3[C@@H]4CC=C5C[C@@H](O[Si](C)(C)C(C)(C)C)CC[C@]5(C)[C@H]4CC[C@]3(C)[C@@H]12 (stereo partly shown) | – | inhibition at 10 µM (read-out: % Inhibition (range)): < 25% |
| C[C@@H]1C(I)COC2C[C@H]3[C@@H]4CC=C5C[C@@H](O)CC[C@]5(C)[C@H]4CC[C@]3(C)C21 (stereo partly shown) | – | inhibition at 10 µM (read-out: % Inhibition (range)): < 25% |
| CC(=O)O[C@H]1CC[C@]23C[C@]24CC[C@]2(C)C5C(C[C@@]2(C)C4CCC3C1(C)C)OC(O)(C(F)(F)F)C[C@H]5C (stereo partly shown) | – | inhibition at 10 µM (read-out: % Inhibition (range)): < 25% |
| CC(=O)O[C@H]1CC[C@]23C[C@]24CC[C@]2(C)C5C(C[C@@]2(C)[C@@H]4CC[C@H]3C1(C)C)OC(C(F)(F)F)=C[C@H]5C (stereo partly shown) | – | inhibition at 10 µM (read-out: % Inhibition (range)): < 25% |
| CC1O[C@@H]([C@H]2C[C@@H](C)C3C(O2)[C@H](O)[C@@]2(C)[C@@H]4CC[C@H]5C(C)(C)[C@@H](O)CC[C@@]56C[C@@]46CC[C@]32C)C(C)(C)O1 (stereo partly shown) | – | inhibition at 10 µM (read-out: % Inhibition (range)): < 25% |
| CC(=O)O[C@@H]([C@H]1C[C@@H](C)C2=C(O1)C(=O)[C@@]1(C)[C@@H]3CC[C@H]4C(C)(C)C(=O)CC[C@@]45C[C@@]35CC[C@]21C)C(C)(C)O | – | inhibition at 10 µM (read-out: % Inhibition (range)): < 25% |
| CC(=O)O[C@H]1CC[C@]23C[C@]24CC[C@]2(C)C5C(C[C@@]2(C)C4CCC3C1(C)C)OC(C(F)(F)F)=C[C@H]5C (stereo partly shown) | – | inhibition at 10 µM (read-out: % Inhibition (range)): < 25% |
| CC1COC2C[C@H]3[C@@H]4CCC5C[C@@H](O)CC[C@]5(C)[C@H]4CC[C@]3(C)C2[C@@H]1C (stereo partly shown) | – | inhibition at 10 µM (read-out: % Inhibition (range)): < 25% |
| C[C@@H]1C=C(C(F)(F)F)OC2C[C@@]3(C)C4CCC5C(C)(C)[C@@H](O)CC[C@@]56C[C@@]46CC[C@]3(C)C21 (stereo partly shown) | – | inhibition at 10 µM (read-out: % Inhibition (range)): 25 to 75% |
| CC(=O)O[C@@H]([C@H]1C[C@@H](C)C2C(O1)[C@H](O)[C@@]1(C)[C@@H]3CC[C@H]4C(C)(C)[C@@H](OC(=O)CN(C)C)CC[C@@]45C[C@@]35CC[C@]21C)C(C)(C)O (stereo partly shown) | ≤ 1000 nM | – |
| CC(=O)O[C@@H]([C@H]1C[C@@H](C)C2C(O1)[C@H](O)[C@@]1(C)[C@@H]3CC[C@H]4C(C)(C)[C@@H](OC(=O)c5ccccn5)CC[C@@]45C[C@@]35CC[C@]21C)C(C)(C)O (stereo partly shown) | ≤ 1000 nM | – |
| CC(=O)O[C@@H]([C@H]1C[C@@H](C)[C@H]2[C@H](O1)[C@H](O)[C@@]1(C)[C@@H]3CC[C@H]4C(C)(C)[C@@H](O[C@H]5CN(CCN(C)C)CCO5)CC[C@@]45C[C@@]35CC[C@]21C)C(C)(C)O | ≤ 1000 nM | – |
| CC(=O)O[C@@H]([C@H]1C[C@@H](C)[C@H]2[C@H](O1)[C@H](O)[C@@]1(C)[C@@H]3CC[C@H]4C(C)(C)[C@@H](O[C@H]5CN(CCN6CCCC6)CCO5)CC[C@@]45C[C@@]35CC[C@]21C)C(C)(C)O | ≤ 1000 nM | – |
| CC(=O)O[C@@H]([C@H]1C[C@@H](C)[C@H]2[C@H](O1)[C@H](O)[C@@]1(C)[C@@H]3CC[C@H]4C(C)(C)[C@@H](O[C@H]5CN(C6CCC6)CCO5)CC[C@@]45C[C@@]35CC[C@]21C)C(C)(C)O | ≤ 1000 nM | – |
| CC(=O)O[C@@H]([C@H]1C[C@@H](C)[C@H]2[C@H](O1)[C@H](O)[C@@]1(C)[C@@H]3CC[C@H]4C(C)(C)[C@@H](O[C@H]5CN(CCO)CCO5)CC[C@@]45C[C@@]35CC[C@]21C)C(C)(C)O | ≤ 1000 nM | – |
| CC(=O)O[C@@H]([C@H]1C[C@@H](C)[C@H]2[C@H](O1)[C@H](O)[C@@]1(C)[C@@H]3CC[C@H]4C(C)(C)[C@@H](O[C@H]5CN(CC(F)(F)F)CCO5)CC[C@@]45C[C@@]35CC[C@]21C)C(C)(C)O | ≤ 1000 nM | – |

| Compound | IC50 | further results |
| --- | --- | --- |
| CC(=O)O[C@@H]([C@H]1C[C@@H](C)[C@H]2[C@H](O1)/C(=N/O)[C@H]1C3CCC4C(C)(C)[C@@H](OC5OC[C@@H](O)[C@H](O)[C@H]5O)CC[C@@]45C[C@@]35CC[C@]21C)C(C)(C)O (stereo partly shown) | ≤ 1000 nM | – |
| CC(=O)O[C@@H]([C@H]1C[C@@H](C)[C@H]2[C@H](O1)C1(SCCS1)[C@@]1(C)C3CCC4C(C)(C)[C@@H](O)CC[C@]4(C)C3=CC[C@]21C)C(C)(C)O (stereo partly shown) | 1000 to 10000 nM | – |
| CC(=O)O[C@@H]([C@H]1C[C@@H](C)[C@H]2[C@H](O1)[C@H](O)[C@@]1(C)[C@@H]3CC[C@H]4C(C)(C)[C@@H](O[C@@H](CN(C)C)OCCN(C)C)CC[C@@]45C[C@@]35CC[C@]21C)C(C)(C)O | 1000 to 10000 nM | – |
| CC(=O)O[C@@H]([C@H]1C[C@@H](C)[C@H]2[C@H](O1)[C@H](O)[C@@]1(C)[C@@H]3CC[C@H]4C(C)(C)[C@@H](O[C@H]5CN(C6COC6)CCO5)CC[C@@]45C[C@@]35CC[C@]21C)C(C)(C)O | ≤ 1000 nM | – |
| CCN1CCO[C@@H](O[C@H]2CC[C@]34C[C@]35CC[C@]3(C)[C@@H]6[C@H](O[C@@H]([C@H](OC(C)=O)C(C)(C)O)C[C@H]6C)[C@H](O)[C@@]3(C)[C@@H]5CC[C@H]4C2(C)C)C1 | ≤ 1000 nM | – |
| CCCN1CCO[C@@H](O[C@H]2CC[C@]34C[C@]35CC[C@]3(C)[C@@H]6[C@H](O[C@@H]([C@H](OC(C)=O)C(C)(C)O)C[C@H]6C)[C@H](O)[C@@]3(C)[C@@H]5CC[C@H]4C2(C)C)C1 | 1000 to 10000 nM | – |
| CC(=O)O[C@@H]([C@H]1C[C@@H](C)[C@H]2[C@H](O1)[C@H](O)[C@@]1(C)[C@@H]3CC[C@H]4C(C)(C)C(OC(=O)c5ccncc5)CC[C@@]45C[C@@]35CC[C@]21C)C(C)(C)O (stereo partly shown) | ≤ 1000 nM | – |
| CC(=O)O[C@@H]([C@H]1C[C@@H](C)[C@H]2[C@H](O1)[C@H](O)[C@@]1(C)[C@@H]3CC[C@H]4C(C)(C)C(OC(=O)[C@@H]5CCCN5)CC[C@@]45C[C@@]35CC[C@]21C)C(C)(C)O (stereo partly shown) | ≤ 1000 nM | – |
| CC(=O)O[C@@H]([C@H]1C[C@@H](C)[C@H]2[C@H](O1)[C@H](O)[C@@]1(C)[C@@H]3CC[C@H]4C(C)(C)C(OC(=O)C5CCCO5)CC[C@@]45C[C@@]35CC[C@]21C)C(C)(C)O (stereo partly shown) | ≤ 1000 nM | – |
| CC(C)C(O)[C@H]1C[C@@H](C)[C@H]2[C@H](O1)[C@H](O)[C@@]1(C)[C@@H]3CC[C@H]4C(C)(C)[C@@H](O)CC[C@@]45C[C@@]35CC[C@]21C (stereo partly shown) | > 10000 nM | inhibition at 20 µM [1]: < 25% |
| C[C@@H]1C[C@H]([C@H](O)C(C)(C)O)O[C@H]2[C@H]1[C@@]1(C)CC[C@@]34C[C@@]35CC[C@H](O[C@H]3CN(CC(N)=O)CCO3)C(C)(C)[C@@H]5CC[C@H]4[C@]1(C)[C@H]2O | > 10000 nM | inhibition at 20 µM [1]: < 25% |
| CC(=O)O[C@@H]([C@H]1C[C@@H](C)[C@H]2[C@H](O1)[C@H](O)[C@@]1(C)[C@@H]3CC[C@H]4C(C)(C)[C@@H](O[C@H]5CN(CCOCCOCCNC(=O)CCCC[C@@H]6SC[C@@H]7NC(=O)N[C@@H]76)CCO5)CC[C@@]45C[C@@]35CC[C@]21C)C(C)(C)O | ≤ 1000 nM | – |
| CC(=O)O[C@@H]([C@H]1C[C@@H](C)[C@H]2[C@H](O1)[C@H](O)[C@@]1(C)[C@@H]3CC[C@H]4C(C)(C)[C@@H](OS(C)(=O)=O)CC[C@@]45C[C@@]35CC[C@]21C)C(C)(C)O | > 10000 nM | – |
| CC(=O)O[C@@H]([C@H]1C[C@@H](C)[C@H]2[C@H](O1)[C@H](O)[C@@]1(C)[C@@H]3CC[C@H]4C(C)(C)[C@@H](OC(=O)Cc5ccccn5)CC[C@@]45C[C@@]35CC[C@]21C)C(C)(C)O | ≤ 1000 nM | – |
| C[C@@H]1C[C@H](CO)O[C@H]2C1[C@@]1(C)CC[C@@]34C[C@@]35CC[C@H](O[C@@H]3OC[C@@H](O)[C@H](O)[C@H]3O)C(C)(C)[C@@H]5CC[C@H]4[C@]1(C)[C@H]2O (stereo partly shown) | > 10000 nM | – |
| CC(=O)O[C@@H]([C@H]1C[C@@H](C)[C@H]2[C@H](O1)[C@H](O)[C@@]1(C)[C@@H]3CC[C@H]4C(C)(C)[C@@H](O[C@H]5CN(S(C)(=O)=O)CCO5)CC[C@@]45C[C@@]35CC[C@]21C)C(C)(C)O | ≤ 1000 nM | – |
| CC1CC(C(O)C(C)(C)O)OC2C1C1(C)CCC34CC35CCC(OC3CN(C(=O)c6cc(F)cc(F)c6)CCO3)C(C)(C)C5CCC4C1(C)C2O (stereo not shown) | – | % Inhibition (range) (Aβ-42, 20 umol/L): E E (% inhibition of 25-75%); % Inhibition (range) (Aβ-42, 100 umol/L): E E (% inhibition of 25-75%) |

— patent publication US20110251379A1, “COMPOUNDS USEFUL FOR TREATING NEURODEGENERATIVE DISORDERS” (Satori Pharmaceuticals, Inc., priority 2010, published 2011)
